Source: the NIST ThermoML archive (doi:10.1016/j.jct.2009.07.010)
Numbers after ± are expanded uncertainties.

Settings: 298.15 K; 101.33 kPa; Liquid; Vibrating tube method

mass density: 1387.07 ± 2.2 kg/m3
SMILES: CCn1cc[n+](C)c1.O=S(=O)([O-])C(F)(F)F [1-ethyl-3-methylimidazolium trifluoromethanesulfonate]
